# Assay results taken from ChEMBL document CHEMBL4477230, “Cytotoxic effect of levoglucosenone and related derivatives against human hepatocarcinoma cell lines” (Bioorg Med Chem Lett, 2016).
# Key:
# Format in all cases: functional, cell-based
# Huh-7 [1] = assay: Cytotoxicity against human HuH7 cells assessed as reduction in cell growth after 48 hrs by MTT assay
# HepG2 [2] = assay: Cytotoxicity against human HepG2 cells assessed as reduction in cell growth after 48 hrs by MTT assay
# Huh-7 [3] = assay: Cytotoxicity against human HuH7 cells assessed as reduction in cell growth after 48 hrs by MTS assay; conditions: Huh-7, 48 h
# HepG2 [4] = assay: Cytotoxicity against human HepG2 cells assessed as reduction in cell growth after 48 hrs by MTS assay; conditions: HepG2, 48 h
# [5] = Homo sapiens, Huh-7, 48 h, read-out: IC50
# [6] = Homo sapiens, HepG2, 48 h, read-out: IC50
SMILES,IC50 (Huh-7 [1]; [5]),IC50 (HepG2 [2]; [6]),IC50 (Huh-7 [1]; huh-7),IC50 (HepG2 [2]; hepg2),other results
O=C1C=C[C@H]2CO[C@@H]1O2,12.9 µM,39.4 µM,,,
CCCCCCS[C@H]1CC(=O)[C@@H]2OC[C@H]1O2,,,Not Active,Not Active,
Cc1ccc(S[C@H]2CC(=O)[C@@H]3OC[C@H]2O3)cc1,12.8 µM,27.5 µM,,,
O=C1C[C@H](n2c(=O)oc3ccccc32)[C@H]2CO[C@@H]1O2,8.79 µM,22.2 µM,,,
O=C1C(Br)=C[C@H]2CO[C@@H]1O2,4.68 µM,14 µM,,,
CCCCS[C@H]1CC(=O)[C@@H]2OC[C@H]1O2,,,Not Active,Not Active,
Cc1ccc(S[C@H]2CC(O)[C@@H]3OC[C@H]2O3)cc1 (some centres undefined),,,Not Active,Not Active,
CCCCS[C@H]1CC(O)[C@@H]2OC[C@H]1O2 (some centres undefined),,,Not Active,Not Active,
O=C1C[C@H](Sc2ccccc2)[C@H]2CO[C@@H]1O2,11 µM,17 µM,,,
COc1cccc2c1C(=O)c1c(O)c3c(c(O)c1C2=O)C[C@@](O)(C(=O)CO)C[C@@H]3O[C@H]1C[C@H](N)[C@H](O)[C@H](C)O1 [DOXORUBICIN],0.24 µM,0.68 µM,,,
O=c1[nH]cc(F)c(=O)[nH]1 [FLUOROURACIL],390 µM,205 µM,,,
CNC(=O)c1cc(Oc2ccc(NC(=O)Nc3ccc(Cl)c(C(F)(F)F)c3)cc2)ccn1 [SORAFENIB],,,,,IC50 (Huh-7 [3]): 11.3 µM; IC50 (HepG2 [4]): 12 µM
